# Tests used:
# E. faecalis OG1RF = assay: TIRF microscopy of wild type and L-form bacteria; type: cell-based; settings: 30 min, 37° C.; for fluorescence localisation, L-form cells: L-form E. faecalis OG1RF
# Text: L-form bacteria and fluorescence microscopy were deployed to further study the interaction between PGOs and bacterial cell walls. L-form bacteria are deficient in cell wall components (referring to substrates forming the cell wall) or cell wall fragments (referring to the residues formed after cell autolysis) on their surface. BOCILLIN™ FL (Boc-FL), a fluorescent penicillin-derivative, was used to compare the localisation of penicillin-derivatives to that of PGOs.
# The localisation of PGOs-rhodamine was also compared to the membrane dye Polymyxin B-BODIPY FL (Polymyxin B). […] In comparison, the PGOs localised in discrete punctae on the L-form cell surfaces. […] Thus, it is concluded that PGOs' localisation patterns within bacterial cell walls strongly resemble penicillin-derivatives (FIG. 9, top row).
# L-forms were generated using DM3 agar by modified methods from reported protocol (Molec. Gen. Genet., 1979, 168, 111-115). DM3 medium consists of 1.2 wt % agar, 0.5 wt % Tryptone, 0.5 wt % yeast extract, 1 M Succinate (pH 7.3), 3.5 wt % K2HPO4 and 1.5 wt % KH2PO4, 20 wt % Glucose, 1 M MgCl2 and 2 wt % BSA, with the balance being water. Parental strain E. faecalis OG1RF was grown overnight at 37° C. in DM3 broth. 100 μL of an overnight culture was directly plated on DM3 agar plates supplemented with 200 μg/ml penicillin G. The plates were incubated at 37° C. Small fried egg-like shaped colonies appeared after 5 days. The colonies were restreaked on DM3 agar with 200 μg/ml penicillin G for a few times to get pure colonies, and serial passaging (ten times) of pure colonies in DM3 agar with decreasing penicillin G concentrations to generate stable L-forms. The stable L-forms were stored at −80° C. in 20% glycerol.
# Fluorescence microscopy was performed on Nikon TIRF microscope (Nikon instruments, NY, USA). BODIPY FL and sulforhodamine B were excited at 488 and 560 nm and emitted at 512 and 580 nm respectively. […]
# [1] = system: S. aureus and E. faecalis; assay: STED super-resolution microscopy of cell walls that incorporated PGOs; type: cell-based
# Experimental: To prepare samples for super resolution STED microscopy, overnight broth cultures were grown in 5 ml of fresh culture broth (1:100 dilution) to prepare logarithmic phase cultures after incubation at 37° C. for 4 hours in a shaking incubator (225 rpm). Then, bacteria cells were pelleted by centrifugation at 1,500×g for 5 min, suspended in culture media (MHB and BHI) at a concentration of 10^8 CFU ml^−1 and incubated for 1 h in the dark in the presence of 100 μg/ml of rhodamine-labeled derivative of 1 at 37° C. with agitation (225 rpm). […] Cells were fixed for 1 h at 37° C. in a shaking incubator (225 rpm), washed three times in PBS and applied to a sterile glass bottom collagen coated dish (MatTek Corporation).
# STED super resolution microscopy was performed on a Leica TCS SP8 STED-3× microscope (Leica Microsystems, Wetzlar, Germany) at SingHealth Advanced Biomaging Core. 479 nm and 556 nm lasers were used for fluorescence excitation, while 660 nm STED laser was used for depletion. In order to achieve maximum lateral resolution, all images were acquired in 2D STED mode. Further image processing required deconvolution, which was done using Huygens Professional software (Scientific Volume Imaging, Hilversum, Netherlands).
# To characterize the bacterial PG cell walls that incorporated PGOs, the microscope images obtained from Example 5 were further analysed.
compound,measurement,setting,value
Cc1cc(C)n2c1C=C1C=CC(CCC(=O)Nc3ccc(OCC(=O)N[C@@H]4C(=O)N5[C@@H]4SC(C)(C)[C@@H]5C(=O)[O-])cc3)=[N+]1[B-]2(F)F.[Na+] [Boc-FL],"fluorescence localisation, L-form cells",E. faecalis OG1RF,only a few distinct fluorescent punctae
same,"fluorescence localisation, wild type cells",E. faecalis OG1RF; wild type E. faecalis OG1RF,intense fluorescence at the septum region and also the adjacent cell surface
CCCCN(CCCC)c1ccc(/C=C/c2cc[n+](CCC[N+](C)(C)CCCN)cc2)cc1.Cl.[Cl-].[Cl-] [FM 1-43fx],localisation of signal on the bacterial cell,[1],adsorbed directly onto the bacterial cell surface
Polymyxin B,"fluorescence localisation, L-form cells",E. faecalis OG1RF,Strong uniform membranous staining
